Test results published in the METLIN SMRT retention time set (Domingo-Almenara et al. 2019).

Test: gradient 5% acetonitrile 3 min, to 50% in 2 min, to 85% in 15 min, held 3 min, 100 µL/min
Details: column: Zorbax Extend-C18 2.1 x 50 mm; eluents: water / acetonitrile, 0.1% formic acid
Method in brief: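 Retention times of pure standards were taken from adduct peaks that were selected by computer and manually inspected. Over 3 months, mixtures of ~100 molecules were run by HPLC–quadrupole time-of-flight mass spectrometry in positive and negative ionization mode. The Zorbax Extend-C18 column (2.1 × 50 mm, 1.8 μm) ran at 100 μL/min in water and acetonitrile, each containing 0.1% formic acid, with 40 μL dead volume and 900 μL dwell volume.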

Compound | RP-LC retention time [s]
Cc1nc(OCC(=O)NCc2ccc3c(c2)OCO3)c2ccccc2n1 | 698
O=C(c1sc(N2CCCCC2)nc1-c1ccccc1)c1c[nH]c2ccccc12 | 1080
COc1ccc(-c2ncc3c(n2)CCN(C(=O)Nc2ccc(Cl)cc2)C3)cc1 | 978
c1cc(N2CCSCC2)ncc1-c1noc(CN2CCN(C3CCCCC3)CC2)n1 | 655
Cn1nc(-c2nc(C3CC3)no2)c2c1CCN(C(=O)c1ccc(F)c(Cl)c1)C2 | 900
Cc1ccc(NC(=O)N2CCC(CN3CCCC(C)C3)CC2)cc1 (stereo not drawn) | 613
O=C(NCc1ccccc1Cl)c1coc(NC(=O)c2cnccn2)n1 | 643
O=C(Cn1c2ccccc2c2ncn(Cc3nc(C4CC4)no3)c(=O)c21)Nc1ccc2c(c1)OCO2 | 823
CN1C(=O)c2cc(C(=O)NCCc3ccccc3)nn2CC1(C)C(=O)NCc1ccccc1 (stereo not drawn) | 769
CC(=O)c1ccc(OCC(O)CN2CCN(Cc3ccc(Cl)cc3)CC2)cc1 (stereo not drawn) | 574
Cc1cc(C)cc(NC(=O)Nc2nccn(-c3cc(C)cc(C)c3)c2=O)c1 | 1220
COc1ccc2c(c1)c(CN1CCC(C(=O)NCCN3CCN(C)CC3)CC1)cn2C | 564
CCn1cc(-c2nc(-c3ccc(Cl)cc3)no2)c(=O)c2cc(F)c(N3CCOCC3)cc21 | 1020
CCCc1noc(-c2cccnc2N2CCCN(Cc3ccc(C)cc3)CC2)n1 | 749
Nc1ncnc2c1c(-c1cnc3[nH]ccc3c1)nn2C1CCCC1 | 709
c1ccc2cc(CC3=NCCN3)ccc2c1 | 649
CCOC(=O)CSc1nnc(-c2nnc(SCC(=O)OCC)n2CC)n1CC | 758
Cn1ncc2c(N3CCOCC3)nc(C(=O)NCc3ccccc3)nc21 | 701
Cn1cccc1Cc1nnc(SCC(=O)Nc2ccccc2F)n1CCc1ccccc1 | 850

Compound | RP-LC retention time [s]
COc1cccc(-c2nc(-c3ccc4c(c3)nnn4CCN(C)C)no2)c1 | 595
CCC(C)C(=O)NC1CCN(C2=NS(=O)(=O)C(c3ccc(C(C)C)cc3)=C2C)CC1 (stereo not drawn) | 962
Brc1cccc(-c2noc(Cc3nnc(-c4ccccc4)o3)n2)c1 | 1090
CCOC(=O)c1noc2nc(C)nc(Nc3cccc(Cl)c3)c12 | 1200
Cn1cccc1-c1cc2n(n1)CCC(=O)N2CCCC(=O)NCCCc1ccccc1 | 833
O=c1cc(-c2ccc(O)cc2)oc2cc(O[C@@H]3O[C@H](CO)[C@H](O)[C@H](O)[C@H]3O)cc(O)c12 | 746
CC1=C(c2ccc(C)cc2)S(=O)(=O)N=C1N1CCCN(C(=O)CC(C)(C)C)CC1 | 888
CCOC(=O)c1c(C)[nH]c(CCC(=O)NC(C)C)c1C | 729
CCc1cccc(NC(=O)Cn2c(C)nc3onc(C)c3c2=O)c1 | 861
O=C(NC1CCCCC1)c1ccc(Nc2c(-c3ccc(Cl)cc3)nc3cnccn23)cc1 | 909
CC(=O)NCc1c(-c2ccc(Cl)cc2)nc2n1CCS2 | 568
O=C1NCCCCCCN(Cc2ccc(C(F)(F)F)cc2)[C@H]2CCC[C@@H]12 | 700
Cc1noc2nc(C)n(CC(=O)Nc3cccc(C(F)(F)F)c3)c(=O)c12 | 879
CCOC(=O)c1c(C)[nH]c(C(=O)N2CCCC(C(=O)NCCC(C)C)C2)c1C (stereo not drawn) | 798
COc1cc2c(cc1/C=C/[N+](=O)[O-])OC(C)C2 (stereo not drawn) | 908
OC(C#Cc1ccccc1)(c1ccccc1)c1ccccc1 | 764
CCN(CC)CCCCN1c2ccccc2Oc2ccc(Cl)cc21 | 843
O=C(O)c1ccccc1-c1nc2ccccc2[nH]1 | 537
Cc1cccc(N2CCN(Cc3nc(-c4ccc(N5CCC(C)CC5)nc4)no3)CC2)c1C | 1280

Further lines, results first:

RP-LC retention time [s] | Compound
608 | O=C(CNC(=O)c1ccc(F)cc1)Nc1nc2ccccc2[nH]1
651 | COc1ccccc1C(CNC(=O)c1cc(=O)c2cc(C)c(C)cc2o1)N(C)C (stereo not drawn)
781 | COc1ccccc1-c1nnc(-c2ccc(OC)c(S(=O)(=O)N3CCOCC3)c2)o1
911 | CC(=O)Nc1ccc(NC(=O)c2cc3sccc3n2Cc2ccc(F)cc2)cc1
807 | Cc1nn(CC(=O)NC2CCCCCC2)c(=O)c2c(C)n(-c3ccccc3)nc12
861 | Cc1ccccc1CC(=O)N1CCCC(COc2cccc(C(=O)NC3CC3)c2)C1 (stereo not drawn)
1030 | Cc1ccc(Cl)cc1NC(=O)N1CCc2nc(-c3ccc(F)cc3)ncc2C1
700 | Cc1ccc(NS(=O)(=O)c2cc3n(c2)CCN(C)C3=O)cc1
1010 | CCN1C(=O)c2cc(S(=O)(=O)NCc3ccccc3F)ccc2Oc2cccnc21
789 | O=C(c1ccccc1)N1CCN(S(=O)(=O)c2cc3c4c(c2)CCC(=O)N4CCC3)CC1
676 | O=C(Cc1cccs1)N1CCc2nn(CC3CC3)c(=O)n2CC1
858 | CC1=C(c2ccc(C)c(C)c2)S(=O)(=O)N=C1N1CCCN(C(=O)c2ccsc2)CC1
834 | COc1ccc(F)cc1S(=O)(=O)N1C[C@@H]2C[C@H]1C[C@@H]2NC(=O)c1cccs1
933 | Cc1ccc(-c2nnc(N3CCC(C(=O)NCc4cccs4)CC3)o2)cc1
909 | COC(=O)c1cc(S(=O)(=O)N2CCCC2C(=O)Nc2cccc(SC)c2)cn1C (stereo not drawn)
729 | O=S(=O)(Cc1ccccc1)N1CCC(Cc2nncn2-c2ccccc2)C1 (stereo not drawn)
814 | CC(C)(Oc1ccc(Cl)cc1)C(=O)NCCNc1cc(-n2cccn2)ncn1
903 | Cn1nc(-c2nnc(-c3ccccc3F)o2)c2c1CCN(S(=O)(=O)c1ccccc1F)C2
730 | O=C(NCC(=O)N1CC2CN(S(=O)(=O)c3cccc(F)c3)CC(C1)O2)c1ccccc1
1030 | CCc1ccc(NS(=O)(=O)c2cc(-c3nc(C)cs3)cs2)cc1
888 | CCCn1cc(C2=CCN(C(=O)NCc3ccc(OC)cc3)CC2)c2cccnc21
725 | Cc1ccc(C)c(S(=O)(=O)Nc2ccc(Cn3cncn3)cc2)c1
875 | COc1cc(NC(=O)C2CCN(S(=O)(=O)c3ccc4c(c3)sc(=O)n4C)CC2)cc(OC)c1
727 | COc1ccc(C2(C)NC(=O)N(CC(=O)Nc3ccc([N+](=O)[O-])cc3)C2=O)cc1 (stereo not drawn)
917 | Cc1ccc(Sc2nccnc2N2CCCC(C(=O)NCC3CCCO3)C2)cc1 (stereo not drawn)

RP-LC retention time [s] | Compound
1080 | COc1ccccc1-c1nnc(-c2cc(S(=O)(=O)N3CCCCC3)ccc2Cl)o1
643 | CN(CCc1noc(C2CN(Cc3cccc(C(F)(F)F)c3)C2)n1)S(C)(=O)=O
600 | CNC(=O)NC1CCN(C(=O)c2ccc(F)cc2)C1 (stereo not drawn)
763 | COc1ccc(Cl)cc1NS(=O)(=O)c1c[nH]c2ncccc12
959 | Cc1ccc(-n2c(N3CCCC(C(=O)Nc4ccc(F)cc4)C3)nc3ccsc3c2=O)cc1 (stereo not drawn)
1180 | COc1ccccc1NC(=O)c1oc2ccccc2c1NC(=O)Cc1ccc(F)cc1
613 | CCNC(=O)c1c2c(nc3ccc(F)cc13)CCC2
1070 | COc1ccc(-c2noc(C3CCCN3C(=O)Nc3ccccc3Br)n2)cc1 (stereo not drawn)
677 | O=C(Cc1nnc(-c2ccc3ncccc3c2)o1)NCc1ccc(F)cc1
627 | O=C(COc1ccc(F)cc1)N1CC(n2cnnc2C2CC2)C1
693 | Cc1ccc(NC(=O)Cn2cnc3nc(N4CCCC(C(=O)NC5CC5)C4)sc3c2=O)cc1C (stereo not drawn)
801 | COc1ccc(NC(=O)N(C)CCc2noc(COc3ccc(F)cc3)n2)cc1OC
1100 | COc1c(C(=O)N2CCN(c3ccccc3F)CC2)sc2cccc(F)c12
831 | CO[C@H]1C(=O)N(C(C)C)[C@H]1C1CCN(S(=O)(=O)c2cccc3nsnc23)CC1
735 | CCOC(=O)c1cccc(NC(=O)C2CCN(S(=O)(=O)c3cn(C)cn3)CC2)c1
751 | CCOc1ccccc1CNC(=O)C1CCN(Cc2cn(C)c3ccc(Cl)cc23)CC1
733 | COc1ccccc1N1CCN(CCN2C(=O)CC3(CCCC3)CC2=O)CC1
978 | Cc1nn2c(CNS(=O)(=O)Cc3cccc(Cl)c3)c(-c3ccccc3)nc2s1
766 | O=C([C@@H]1C[C@H](F)CN1C(=O)Nc1cc(F)cc(F)c1)N1CCCCC1
585 | Cc1cnc(C2CN(C(=O)C3(c4ccccc4)CC3)C2)n1Cc1cccnc1
964 | COc1ccc(-c2nnc(-c3cc(S(=O)(=O)NCc4ccco4)ccc3Cl)o2)cc1
928 | CCOC(=O)Oc1ccc2c(=O)c(Oc3cccc(OC)c3)coc2c1
1130 | CC(C)(C)c1ccc(S(=O)(=O)N2CCC(C(=O)NCc3csc(-c4ccccc4)n3)CC2)cc1
826 | COc1ccc(-c2nnc(COc3ccc(NC(=O)C4CCC4)cc3)o2)cc1
764 | COCc1cc(=O)n(Cc2cccc(OC)c2)c(N2CCCC2)n1
